Test results as given in ChEMBL document CHEMBL3046435, “Isolation and identification of insecticidal components from Citrus aurantium fruit peel extract” (2008).
Activity calls are given as the source filed them. The rule behind the calls is not given here.

How the values were obtained:
[1] = test system: Bactrocera oleae; assay: Insecticidal activity against Bactrocera oleae exposed to compound for 12 hr assessed as insect mortality measured 72 hr post dose by petri dish exposure bioassay (reference value: 2 +/- 2%); assay type: functional, organism-based
[2] = test system: Bactrocera oleae; assay: Insecticidal activity against Bactrocera oleae exposed to 0.45 ug/cm2 compound for 12 hr assessed as insect mortality measured 72 hr post dose by petri dish exposure bioassay (reference value: 2 +/- 2%); assay type: functional, organism-based
[3] = test system: Bactrocera oleae; assay: Insecticidal activity against Bactrocera oleae exposed to 1.12 ug/cm2 compound for 12 hr assessed as insect mortality measured 72 hr post dose by petri dish exposure bioassay (reference value: 2 +/- 2%); assay type: functional

| Compound | Activity [1] | Activity [2] | mortality [3] |
| --- | --- | --- | --- |
| COc1c2ccoc2cc2oc(=O)ccc12 | inactive | inactive | – |
| COc1ccc2ccc(=O)oc2c1CC=C(C)C | – | inactive | – |
| C/C(=C\COc1c2ccoc2cc2oc(=O)ccc12)CCC1OC1(C)C (centres undefined) [6',7'-EPOXYBERGAMOTTIN] | – | – | 48% |
